According to US20060293386A1, “Method for treating cancer” (priority 2005, published 2006):
Several values for one entry are separate records, joined by “and”; a condition that tells them apart may be missing. Identical values can stand only once. Entries after “also recorded” stand apart in the source; their conditions may differ. Like-named read-outs stand apart in the source and are kept apart here.

Legend:
[1] = system: HCC (hepato cellular carcinoma); assay: Transition of AFP (tumor marker) values in GM-administered HCC patients; format: in vivo; details: for Average AFP value: GM-administered HCC group with abnormal AFP values; for Effect on AFP values (in words): GM-administered HCC patients, 100-300 mg intravenous drip infusion
From the text: (§1) AFP (Alpha-fetoprotein) and PIVKA-II (isomer of prothrombin) were used as tumor markers of HCC. […] In general, it is often difficult to determine the shrinkage of cancer lesions by CT scanning or echo imaging immediately after conducting TAE, therefore these markers are used to determine the effects. In Japan, the conventional Alpha-feto Riabeads method has been replaced by the Chemilumi ACS-AFP method since May 2004. The former is a radiation immunoassay whose standard value is ≦20. Meanwhile, the latter is a chemiluminescence immunoassay whose standard value is ≦10.
HCC patients and AFP-positive (precancerous lesions or regenerating hepatocytes) patients without HCC observed on the images ([…] as “GM”) dissolved in 150-300 ml of physiological saline or of 5% glucose by intravenous drip infusion. GM is originally a drug applicable to chronic pancreatitis, acute pancreatitis, and DIC (disseminated intravascular coagulation), however, informed consent was obtained before the administration. And in allergy cases, the starting dose was 75-100 mg and increased. The nonadministered group is GM-nonadministered HCC cases.
In general, AFP and PIVKA-II values are considered to represent cancer viability in hepato cellular carcinoma cases. GM is considered to suppress the viability, since GM suppresses AFP and PIVKA-II values. […]
As described above, GM administration after TAE was conducted 10 days after TAE was completed. And GM was considered effective if suppression was observed 4 months after TAE was completed.

[2] = Side effects of GM among 22 cases; format: in vivo, patients; details: among 22 cases including pancreatic disease cases
From the text: Side effects of GM used in the present invention already include shock, anaphylaxis, bleeding tendency, granulocytopenia, fall in blood pressure, elevation of GOT and GPT, facial flushing and the like; among 22 cases including pancreatic disease cases, shock: 0 case, anaphylaxis: 3 cases, bleeding tendency: 0 case, slight granulocytopenia: 22 cases, significant fall in blood pressure: 0 case, elevation of GOT and GPT: 2 cases, and withdrawal: 0.

[3] = system: HCC (hepato cellular carcinoma); assay: Transition of PIVKA-II (tumor marker) values in GM-administered HCC patients; format: in vivo
From the text: as §1
HCC patients and AFP-positive (precancerous lesions or regenerating hepatocytes) patients without HCC observed on the images (on CT or echo exam) were given 100-300 mg of gabexate mesilate (hereinafter referred to as “GM”) dissolved in 150-300 ml of physiological saline or of 5% glucose by intravenous drip infusion. GM is originally a drug applicable to chronic pancreatitis, acute pancreatitis, and DIC (disseminated intravascular coagulation), however, informed consent was obtained before the administration. And in allergy cases, the starting dose was 75-100 mg and increased. The nonadministered group is GM-nonadministered HCC cases.
In general, AFP and PIVKA-II values are considered to represent cancer viability in hepato cellular carcinoma cases. […]

Q: With `CCOC(=O)c1ccc(OC(=O)CCCCCN=C(N)N)cc1.CS(=O)(=O)O` [GM, gabexate mesilate] as the compound, how does the Maximum AFP value ([1]; 0 M, GM-administered HCC group) read?
A: Its Maximum AFP value is 18.9 ng/mL.

Q: And the “Minimum AFP value” ([1]; 0 M, GM-administered HCC group)?
A: Its value is 6.5.

Q: And the “Average AFP value” ([1]; 0 M, 7 cases)?
A: Its value is 11.1 ± 4.8 and 11.1.

Q: And the AFP value ([1]; 0 M, individual GM-administered HCC patient, Chemilumi ACS-AFP method)?
A: The AFP value was 18.9 and 15.5 and 8.1 and 7.2 and 8.5 and 6.5 and 13.0.

Q: What about the “Increase and decrease in AFP value, Δ 1 M” value ([1]; 1 M versus 0 M, individual GM-administered HCC patient) of the same compound?
A: The value was −2.7 and −1.3 and 3.6 and 2.4 and 3.3 and 0.3 and −3.4.

Q: What about the “Average difference of AFP from the value at 0M” value ([1]; 1 M, GM-administered HCC group) of the same compound?
A: Its value is 0.3 and 0.3143.

Q: And the Maximum AFP value ([1]; 1 M, GM-administered HCC group)?
A: The Maximum AFP value was 19.2 ng/mL.

Q: And the “Minimum AFP value” ([1]; 1 M, GM-administered HCC group)?
A: Its value is 5.4.

Q: And the “Significant difference of AFP versus 0M” value ([1]; 1 M, GM-administered HCC group)?
A: The value was “none”.

Q: And the “Average AFP value” ([1]; 1 M, 7 cases)?
A: Its value is 11.4 ± 5.1 and 11.4.

Q: What about the AFP value ([1]; 1 M, individual GM-administered HCC patient, Chemilumi ACS-AFP method) of the same compound?
A: The AFP value was 19.2 and 12.1 and 5.4 and 5.9 and 8.9 and 16.3.

Q: What about the “Increase and decrease in AFP value, Δ 2 M” value ([1]; 2 M versus 0 M, individual GM-administered HCC patient) of the same compound?
A: Its value is −1.4 and 3.1 and −0.3 and 2.2 and 1.5 and −6.8.

Q: What about the Maximum AFP value ([1]; 2 M, GM-administered HCC group) of the same compound?
A: Its Maximum AFP value is 20.4 ng/mL.

Q: And the “Minimum AFP value” ([1]; 2 M, GM-administered HCC group)?
A: Its value is 5.8.

Q: And the “Significant difference of AFP versus 0M” value ([1]; 2 M, GM-administered HCC group)?
A: The value was “none”.

Q: And the “Average AFP value” ([1]; 2 M, 6 cases)?
A: The value was 11.3 ± 5.7 and 11.3.

Q: And the AFP value ([1]; 2 M, individual GM-administered HCC patient, Chemilumi ACS-AFP method)?
A: The AFP value was 20.4 and 8.7 and 5.8 and 11.6 and 6.2 and 15.2.

Q: And the “Increase and decrease in AFP value, Δ 3 M” value ([1]; 3 M versus 0 M, individual GM-administered HCC patient)?
A: Its value is −3 and −3.2 and 5.1 and 0.2 and 3.7 and 4.1 and −9.4.

Q: And the Maximum AFP value ([1]; 3 M, GM-administered HCC group)?
A: The Maximum AFP value was 23 ng/mL.

Q: What about the “Minimum AFP value” ([1]; 3 M, GM-administered HCC group) of the same compound?
A: The value was 4.0.

Q: And the “Significant difference of AFP versus 0M” value ([1]; 3 M, GM-administered HCC group)?
A: The value was “none”.

Q: And the “Average AFP value” ([1]; 3 M, 7 cases)?
A: Its value is 10.7 ± 7.2 and 10.7.

Q: What about the AFP value ([1]; 3 M, individual GM-administered HCC patient, Chemilumi ACS-AFP method) of the same compound?
A: Its AFP value is 23.0 and 6.1 and 5.1 and 4.0 and 13.6 and 6.7 and 16.7.

Q: And the AFP value ([1]; 3rd case of TABLE 2, 20 mg of GM, when HCC was roughly diagnosed by contrast CT)?
A: The AFP value was 8-9.

Q: And the “Current AFP value” ([1]; 4th case of TABLE 2, 200 mg of GM after TAE)?
A: Its value is “around 7”.

Q: What about the “Highest AFP value reached” value ([1]; 4th case of TABLE 2, GM reduced to 75-100 mg because of allergy, before TAE) of the same compound?
A: The value was “up to 70”.

Q: What about the “Statistical difference of AFP between each month and 0M (in words)” value ([1]; GM-administered HCC patients of TABLE 2) of the same compound?
A: Its value is “no significant difference”.

Q: What about the “Effect on AFP values (in words)” value [1] of the same compound?
A: Its value is “the elevation of AFP values was suppressed; also recorded: elevation of PIVKA-II and AFP values was not observed”.

Q: And the “Effect on AFP values (in words)” value ([1]; listed as gabexate mesilate)?
A: The value was “dropped, or their elevation was suppressed; also recorded: suppressed the elevation of AFP values for a prolonged period”.

Q: And the “Number of times of effective GM administrations after TAE” value ([1]; cases of TABLE 2, effective if suppression observed 4 months after TAE)?
A: The value was 6.

Q: And the “Current AFP value” ([1]; first case of TABLE 2, person, GM 200-300 mg with repeated TAE)?
A: Its value is 9.0.

Q: What about the “Number of times of effective GM administrations, single GM administration” value ([1]; single GM-administered cases including 4 cases with abnormal AFP values of unknown etiology, effective if markers suppressed in one month) of the same compound?
A: The value was 7.

Q: And the “Side effect: anaphylaxis” value [2]?
A: Its value is 3 cases.

Q: And the “Side effect: bleeding tendency” value [2]?
A: Its value is 0 case.

Q: What about the “Side effect: elevation of GOT and GPT” value [2] of the same compound?
A: The value was 2 cases.

Q: And the “Side effect: shock” value [2]?
A: Its value is 0 case.

Q: And the “Side effect: significant fall in blood pressure” value [2]?
A: Its value is 0 case.

Q: What about the “Side effect: slight granulocytopenia” value [2] of the same compound?
A: The value was 22 cases.

Q: And the Withdrawal [2]?
A: Its Withdrawal is 0.

Q: And the “Effect on PIVKA-II values (in words)” value [3]?
A: Its value is “elevation of PIVKA-II and AFP values was not observed”.

Q: What about the “Effect on PIVKA-II values (in words)” value ([3]; listed as gabexate mesilate) of the same compound?
A: Its value is “dropped, or their elevation was suppressed”.
